In patent US4760201A (Exxon Research & Engineering Co., priority 1986, dated 1988):
“And” between values parts separate entries of the source, which are not always exact repeats. Equal values may be shown once. Read-outs that look alike come from different tables or passages of the source.

How the values were obtained:
[1] = Description: The liquids thus passed to the extraction unit were preheated each to a temperature of 60° C. The reciprocating plate column was provided with a hot water heating jacket maintained at 60° C. […] The liquids thereby accumulated were each analyzed by gas chromatography and nuclear magnetic resonance spectroscopy (NMR) for component identification.
[2] = Partitioning of alcohol into neodecanoic acid from sulfuric acid/alcohol feedstreams (Examples 14-21); conditions: AS 60%, 60° C.
[3] = Comparative runs: partitioning of SBOH and water into neodecanoic acid from aqueous sec-butanol free of sulfuric acid
Procedure: (§1) In a series of runs, separate portions of the acid/alcohol feedstreams were contacted with the indicated amount of octanoic acid for extraction of sec-butyl alcohol (SBA) therefrom using the indicated contacting temperatures, employing a 60 ml. separatory funnel, with agitation, and employing 3 hours of setting time. The weight percent sec-butyl alcohol in the light phase (i.e., the upper layer comprising the octanoic acid layer) was then analyzed.

[4] = Batch extraction of sec-butyl alcohol (SBA) from acid/alcohol feedstream by aliphatic acids; SBA in light phase; type: physicochemical; conditions: AS 56.7%, ES 0.5
Source text: Thereafter, the thus-formed acid/alcohol […] contacted with the selected amount of a carboxylic acid solvent of this invention, and the results thereby obtained are reported in the associated tables below.

[5] = Effect of solvent/feed ratio on selectivity of extraction (H2O/SBA in upper layer); conditions: 25° C., AS 56.7%, ES 0.5
Procedure: as §1

Compound: CCC(C)OC(C)CC (stereo not drawn) [SBE, secondary butyl ether]
- Overall Partition Coefficients, Wt. Fract. (concentration in light phase / in heavy phase) [1]: 81.2

Compound: CCC(C)O (stereo not drawn) [SBOH, sec-butyl alcohol]
- Overall Partition Coeff. SBOH ([2]; Example 14, ES 0.2, NDA/SBOH 15.6): 0.3
- Overall Partition Coeff. SBOH ([2]; Example 15, ES 0.2, NDA/SBOH 3.9): 0.35
- Overall Partition Coeff. SBOH ([2]; Example 16, ES 0.2, NDA/SBOH 7.9): 0.33
- Overall Partition Coeff. SBOH ([2]; Example 17, ES 0.2, NDA/SBOH 23.2): 0.31
- Overall Partition Coeff. SBOH ([2]; Example 18, ES 0.2, NDA/SBOH 4.7): 1.35
- Overall Partition Coeff. SBOH ([2]; Example 19, ES 1.0, NDA/SBOH 1.3): 0.25
- Overall Partition Coeff. SBOH ([2]; Example 20, ES 1.0, NDA/SBOH 2.6): 0.24
- Overall Partition Coeff. SBOH ([2]; Example 21, ES 1.0, NDA/SBOH 7.9): 0.34
- Overall Partition Coeff. SBOH ([3]; Comparative Example I, 25° C., start SBOH 47.8 wt %): 4.1
- Overall Partition Coeff. SBOH ([3]; Comparative Example II, 25° C., start SBOH 7.3 wt %): 2.2
- Overall Partition Coeff. SBOH ([3]; Comparative Example III, 25° C., start SBOH 63.9 wt %): 4.0
- Overall Partition Coeff. SBOH ([3]; Comparative Example IV, 25° C., start SBOH 13.9 wt %): 2.2
- Overall Partition Coeff. SBOH ([3]; Comparative Example IX, 60° C., start SBOH 28.3 wt %): 6.0
- Overall Partition Coeff. SBOH ([3]; Comparative Example V, 60° C., start SBOH 45.3 wt %): 6.0
- Overall Partition Coeff. SBOH ([3]; Comparative Example VI, 60° C., start SBOH 7.4 wt %): 4.4
- Overall Partition Coeff. SBOH ([3]; Comparative Example VII, 60° C., start SBOH 61.7 wt %): 6.4
- Overall Partition Coeff. SBOH ([3]; Comparative Example VIII, 60° C., start SBOH 13.5 wt %): 4.5
- Overall Partition Coefficients, Wt. Fract. (concentration in light phase / in heavy phase) ([1]; Table 1, residence time 3.52 hours, solvent-to-feed 2.04:1, E.S. 1, A.S. 55%, 60° C.): 1.26
- Overall Partition Coefficients, Wt. Fract. (concentration in light phase / in heavy phase) ([1]; Table 2, residence time 3.62, solvent-to-feed 2.098:1, E.S. 1, A.S. 55%, 60° C.): 0.83
- Overall Partition Coefficients, Wt. Fract. (concentration in light phase / in heavy phase) ([1]; Table 3, residence time 3.66 hours, solvent-to-feed 2.043:1, E.S. 1, A.S. 55%, 60° C.): 1.15
- Overall Partition Coefficients, Wt. Fract. (concentration in light phase / in heavy phase) ([1]; Table 4, residence time 3.66 hrs, solvent-to-feed 2.11:1, solvent feed temp. 30° C., E.S. 1, A.S. 55%, 60° C.): 4.51
- Overall Partition Coefficients, Wt. Fract. (concentration in light phase / in heavy phase) ([1]; Table 5, residence time 3.37 hrs, solvent-to-feed 1.23:1, E.S. 1, A.S. 55%, 60° C.): .627
- Overall Partition Coefficients, Wt. Fract. (concentration in light phase / in heavy phase) ([1]; Table 6, residence time 3.60 hrs, solvent-to-feed 2.06:1, E.S. 1, A.S. 60%, 60° C.): 0.340
- Overall Partition Coefficients, Wt. Fract. (concentration in light phase / in heavy phase) ([1]; Table 7, residence time 3.77 hrs, solvent-to-feed 1.38:1, E.S. 1, A.S. 60 wt. %, 60° C.): 0.267

Compound: O [Water, water]
- Overall Partition Coefficients, Wt. Fract. (concentration in light phase / in heavy phase) [1]: 0.012

Compound: CC(C)(C)CCC(=O)O [neoheptanoic acid]
- SBA in Light Phase ([4]; Table 9, 25 °C, vol:vol 1.0:1): 5.04 wt. %
- SBA in Light Phase ([4]; Table 9, 60 °C, vol:vol 1.0:1): 7.82 wt. %
- selectivity of extraction [5]: high selectivity for alcohol extraction
- wt:wt. ratio H2O/SBA In Upper Layer ([5]; solvent/feed 0.4 (v/v)): 0.099 wt:wt
- wt:wt. ratio H2O/SBA In Upper Layer ([5]; solvent/feed 1.0 (v/v)): 0.054 wt:wt
- wt:wt. ratio H2O/SBA In Upper Layer ([5]; solvent/feed 1.5 (v/v)): 0.045 wt:wt
- wt:wt. ratio H2O/SBA In Upper Layer ([5]; solvent/feed 2.0 (v/v)): 0.067 wt:wt

Compound: CCCCCCCC(=O)O [octanoic acid]
- SBA in Light Phase ([4]; Run 8-1, 60 °C, v:v solvent:feed 1.0): 9.91 wt. %
- SBA in Light Phase ([4]; Run 8-2, 60 °C, v:v solvent:feed 2.0): 7.20 wt. %
- SBA in Light Phase ([4]; Run 8-3, 25 °C, v:v solvent:feed 0.2): 7.38 wt. %
- SBA in Light Phase ([4]; Run 8-4, 25 °C, v:v solvent:feed 0.4): 7.57 wt. %
- SBA in Light Phase ([4]; Run 8-5, 25 °C, v:v solvent:feed 1.0): 6.15 wt. %
- SBA in Light Phase ([4]; Run 8-6, 25 °C, v:v solvent:feed 1.5): 5.37 wt. %
- SBA in Light Phase ([4]; Run 8-7, 25 °C, v:v solvent:feed 2.0): 4.54 wt. %
- SBA in Light Phase ([4]; Table 9, 25 °C, vol:vol 1.0:1): 6.15 wt. %
- SBA in Light Phase ([4]; Table 9, 60 °C, vol:vol 1.0:1): 9.91 wt. %
- selectivity of extraction [5]: increasing amounts of water being removed
- wt:wt. ratio H2O/SBA In Upper Layer ([5]; solvent/feed 0.2 (v/v)): 0.066 wt:wt and 0.079 wt:wt
- wt:wt. ratio H2O/SBA In Upper Layer ([5]; solvent/feed 0.4 (v/v)): 0.055 wt:wt
- wt:wt. ratio H2O/SBA In Upper Layer ([5]; solvent/feed 1.0 (v/v)): 0.067 wt:wt
- wt:wt. ratio H2O/SBA In Upper Layer ([5]; solvent/feed 2.0 (v/v)): 0.101 wt:wt

Compound: butene
- Overall Partition Coefficients, Wt. Fract. (concentration in light phase / in heavy phase) [1]: > 2000
